“And” between values parts separate entries of the source, which are not always exact repeats. Identical values can stand only once.
What was measured:
[1] = tested on: LNCaP-tumor-xenografts; assay: Biodistribution in LNCaP-tumor-bearing SCID mice; type: in vivo; conditions: 1 h p.i., mean ± SD, n = 4
Experimental: To induce LNCaP tumor growth, male CB-17 SCID mice (6–8 weeks, Charles River Laboratories, Sulzfeld, Germany) were inoculated subcutaneously onto the right shoulder with LNCaP cells (approximately 1 × 10^7 cells/200 μL DMEM/Nutrition Mix F-12 with Glutamax-I (1:1) medium and Matrigel (BD Biosciences, Germany) (1:1)). After 3–5 weeks, tumor size reached 4–8 mm in diameter, and the animals were used for in vivo studies.
About 0.8–1 MBq of the ^18F-labeled tracer were injected into the tail vein of the mice (n = 8) under isoflurane anesthesia. Animals were sacrificed at 1 and 2 h p.i.; the organs of interest were dissected, and the activity in the weighed tissues samples was quantified using a γ-counter.
The high plasma protein binding and therefore delayed blood pool clearance of ^18F-PSMA-1007 leads to low tumor-to-blood and tumor-to-spleen ratios, especially 2 h p.i. (Fig. 5; Additional file 1: Figure S5).
Data are given in % IA/g are means ± SD (n = 4 animals per group and time point)

[2] = target: T1, human serum albumin (HSA) (Homo sapiens, UniProt P02768); assay: Plasma protein binding on Chiralpak HSA column; type: in vitro ADME
T1 construct: purchased Chiralpak (manufacturer not given)
T1 sequence (P02768 25-609): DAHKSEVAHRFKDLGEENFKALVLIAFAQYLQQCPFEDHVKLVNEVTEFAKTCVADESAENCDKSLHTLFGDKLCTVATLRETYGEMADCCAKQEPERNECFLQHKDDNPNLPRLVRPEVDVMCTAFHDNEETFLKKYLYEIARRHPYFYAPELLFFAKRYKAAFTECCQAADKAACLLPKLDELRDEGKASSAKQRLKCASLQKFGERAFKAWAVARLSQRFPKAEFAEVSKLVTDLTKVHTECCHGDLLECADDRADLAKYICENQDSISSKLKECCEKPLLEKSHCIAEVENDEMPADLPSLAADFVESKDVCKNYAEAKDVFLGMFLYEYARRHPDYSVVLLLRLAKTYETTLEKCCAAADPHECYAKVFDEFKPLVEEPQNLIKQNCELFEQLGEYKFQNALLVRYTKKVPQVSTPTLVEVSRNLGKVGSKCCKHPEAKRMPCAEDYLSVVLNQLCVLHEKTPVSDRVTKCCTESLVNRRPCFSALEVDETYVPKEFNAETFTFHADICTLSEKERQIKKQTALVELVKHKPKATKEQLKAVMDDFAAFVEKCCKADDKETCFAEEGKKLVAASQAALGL
Experimental: Plasma protein binding of the tracers was determined using an analytical Chiralpak human serum albumin (HSA) column (50 × 3 mm, 5 μm) according to a previously published protocol with minor changes.

[3] = CD-1, mouse, in vivo, 1 h
Experimental: (§14) Approximately 60–70 MBq of the ^18F-labeled inhibitors were injected into the tail vein of severe combined immunodeficiency (SCID) mice. The animals were sacrificed 1 h p.i., blood and urine were collected, and kidneys were dissected and after freezing with liquid nitrogen, homogenized with a ball mill and extracted with 1 mL PBS containing 200 nmol PMPA. After centrifugation (15,000g) and ultrafiltration, the extracts were analyzed by reversed phase high-performance liquid chromatography (RP-HPLC). Blood samples were centrifuged to separate the plasma from the blood cells. Additionally, plasma proteins were removed by precipitation with acetonitrile (10 min, on ice), subsequent centrifugation and ultrafiltration. The blood extracts and the urine samples were analyzed using RP-HPLC. For RP-HPLC, a Nucleosil 100 C18 (5 μm, 125 × 4.0) column and different HPLC-systems were used (EuE-based inhibitors: flow rate: 2 mL/min; Gradient: 0–30% B in 20 min; HPLC-System A (see Additional file 1); ^18F-PSMA-1007: flow rate: 1.5 mL/min; Gradient: 5–55% B in 10 min; HPLC-System B (see Additional file 1); solvent A: 0.1% trifluoroacetic acid (TFA) in water, solvent B: 0.1% TFA in MeCN).

[4] = tested on: mCRPC patient; assay: PET/MR imaging of a mCRPC patient (compassionate use); type: in vivo, human; conditions: PET/MR 62 min after injection of 158 MBq
Experimental: Based on the promising preclinical results obtained for EuE-k-^18F-FBOA (1) a mCRPC patient (PSA 392 ng/ml) was imaged under compassionate use. The agent was applied in compliance with The German Medicinal Products Act, Arzneimittelgesetz (AMG) §13 2b, and in accordance with the responsible regulatory body (Government of Oberbayern). The patient underwent PET/MR imaging 62 min after injection of 158 MBq of EuE-k-^18F-FBOA (Fig. 6).
Images show the typical biodistribution of PSMA ligands with minimal blood pool retention.

[5] = tested on: PSMA-expressing LNCaP cells; assay: Internalization of the 18F-labeled ligands, normalized to ([125I]I-BA)KuE; type: cell-based, human; conditions: for Specific Internalization (1h; % of reference): LNCaP cells, 37°C, corrected for non-specific internalization (100 μM PMPA), reference ([125I]I-BA)KuE, mean ± SD, n = 3; for fold higher internalization rate than the reference ligands: versus 18F-DCFPyl and 18F-PSMA-1007, PSMA-expressing cells
Experimental: PSMA overexpressing LNCaP cells (CLS: 300265) were cultured in DMEM/Nutrition Mix F-12 with Glutamax-I (1:1) (Invitrogen, Life Technologies, Darmstadt, Germany) supplemented with 10% FCS and were maintained at 37 °C in a 5% CO2/humidified air atmosphere. For IC50 determination, approximately 150,000 cells/well were seeded on 24-well plates 1 day prior to the experiment. For internalization studies, 125,000 cells/well were seeded in PLL-coated 24-well plates. For cell counting, a Countesse automated cell counter (Invitrogen, Carlsbad, USA) was used.
PSMA affinity and internalization kinetics of the ^18F-labeled compounds were determined according to a previously published protocol. A detailed description is provided online in the supporting information.
Competitive binding experiments (IC50) were carried out using PSMA-expressing LNCaP cells and ([^125I]I-BA)KuE as standard radioligand. Internalization kinetics of the ^18F-labeled derivatives were also performed using PSMA-expressing LNCaP cells and ([^125I]I-BA)KuE (0.2 nM) as an internal reference. Data were corrected for non-specific internalization in the presence of 100 μM 2-phosphonomethyl pentanedioic acid (PMPA) and normalized to the specific internalization observed for the radioiodinated reference compound assayed in a parallel experiment. Data represent means ± SD (n = 3).
Internalization studies of the 18F-labeled EuE-based inhibitors, 18F-DCFPyl and 18F-PSMA-1007 were performed according to a previously published protocol. Briefly, after washing the cells with 0.5 mL DMEM-F12 (5% BSA), the cells were preconditioned for a minimum of 15 min with 200 µL DMEM-F12 (5% BSA) at 37°C. Then, 25 µL (per well) of either assay medium (total internalization) or of a 100 µM 2-PMPA solution (non-specific internalization) were added, followed by addition of 25 µL of assay medium containing the respective 18F-labeled PSMA inhibitor or ([125I]I-BA)KuE (0.2 nM). The internalization kinetics were determined by cell incubation at 37°C for 5, 15, 30, and 60 min, respectively. All experiments were carried out in triplicate for each time point (control and blocking).
Incubation was terminated by placing the plate on ice and by removal of the incubation medium. The cells were subsequently rinsed with 250 µL DMEM-F12 (5% BSA) and combined with the supernatant of the previous step (amount of free radioligand). To remove receptor surface-bound radioactivity, the cells were incubated with 250 µL of ice cold PMPA in PBS (10 µM) for 10 min. After removal of the supernatant, the cells were thoroughly rinsed with another 250 µL of ice-cold PBS and both fractions were combined (amount of receptor-bound radioactivity). By incubation of the cells with 250 µL 1N NaOH (5 min), the internalized activity was released, the suspension transferred to vials, and combined with 250 µL of 1N NaOH used for subsequent rinsing of the wells. Quantification of the amount of free, PMPA-releasable, and internalized activity was performed in a γ-counter. For analysis of the internalization, data for both the 18F-labeled compound of interest and for the reference ([125I]I-BA)KuE in the same experiment were first corrected by the amount of non-specific internalization (adding of 100 µM PMPA), respectively, and then each was normalized to the amount of internalized ligand in the absence of unlabeled competitor (100%). To eliminate the influence of cell count and cell viability on the absolute internalization values, data (60 min) are expressed as the ratio of the internalization of the compound of interest to the internalization (60 min) found for ([125I]I-BA)KuE in the same experiment (Fig 2, Fig S3). Data represent means ± SD (n=3).
18F-PSMA-1007 and reference ([125I]I-BA)KuE into LNCaP cells (37°C) (mean ± SD [n = 3]) *Specific internalization of the reference compound ([125I]I-BA)KuE assayed in a parallel experiment and used for data […]
The results of the metabolite analyses of the 18F-labeled EuE-based inhibitors, as well as of 18F-PSMA- […]

[6] = target: T2, PSMA (Homo sapiens, UniProt Q04609); assay: Competitive binding assay (IC50) on LNCaP cells with ([125I]I-BA)KuE as radioligand; conditions: cold reference ligands, ([125I]I-BA)KuE 0.2 nM, 1 h, 4°C, mean ± SD, n = 3, read-out: PSMA affinity (IC50)
T2 construct: host or cells: LNCaP cells
T2 sequence (Q04609 whole entry): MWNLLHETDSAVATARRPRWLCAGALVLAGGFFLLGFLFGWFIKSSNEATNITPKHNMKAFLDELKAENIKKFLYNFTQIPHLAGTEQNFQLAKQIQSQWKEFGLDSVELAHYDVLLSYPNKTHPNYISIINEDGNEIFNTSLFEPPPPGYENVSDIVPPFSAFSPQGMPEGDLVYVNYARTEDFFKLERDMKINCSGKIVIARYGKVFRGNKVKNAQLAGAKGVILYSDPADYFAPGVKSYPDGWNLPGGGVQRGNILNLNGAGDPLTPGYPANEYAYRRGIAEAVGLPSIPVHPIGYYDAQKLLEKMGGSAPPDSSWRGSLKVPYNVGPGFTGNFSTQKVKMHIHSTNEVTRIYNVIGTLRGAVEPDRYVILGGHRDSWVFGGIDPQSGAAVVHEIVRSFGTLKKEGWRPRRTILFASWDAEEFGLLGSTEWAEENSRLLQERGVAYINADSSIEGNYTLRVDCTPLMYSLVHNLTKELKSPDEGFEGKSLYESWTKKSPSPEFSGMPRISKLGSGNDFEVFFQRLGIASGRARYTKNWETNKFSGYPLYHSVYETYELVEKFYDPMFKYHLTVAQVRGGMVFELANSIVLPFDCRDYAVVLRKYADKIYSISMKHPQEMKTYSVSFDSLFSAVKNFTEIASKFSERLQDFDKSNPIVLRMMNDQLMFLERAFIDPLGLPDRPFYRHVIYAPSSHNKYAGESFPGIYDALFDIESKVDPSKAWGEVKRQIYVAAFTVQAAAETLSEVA
Experimental: Competitive binding experiments (IC50) were carried out using PSMA-expressing LNCaP cells and ([^125I]I-BA)KuE as standard radioligand. […] Data represent means ± SD (n = 3).
Determination of the PSMA binding affinities (IC50)
The culture medium was removed and the cells were washed with 500 µL of HBSS (Hank´s balanced salt solution, Biochrom Berlin, Germany, containing 1% bovine serum albumin (BSA)). Before the experiment the cells were left to equilibrate in 200 µL HBSS (1% BSA) for 15 min on ice. Afterwards, 25 µL/well of solutions containing the respective unlabeled inhibitor in increasing concentrations (10- 10 – 10^-4 M in HBSS (1% BSA)) or either HBSS (1% BSA) as control were added, followed by the addition of 25 µL of ([125I]I-BA)KuE as a competitor. The final concentration of the radioiodinated inhibitor was 0.2 nM in all assays. For each concentration the experiments were performed in triplicates. Incubation of the cells was carried out for 60 min on ice and terminated by removal of the assay medium. The cells were thoroughly rinsed with 250 µL of HBSS and the washing medium was combined with the supernatant of the previous step, representing the amount of free radioligand.
Then, the cells were lysed using 250 µL of 1 N NaOH, and the lysat was transferred to vials and combined with 250 µL of HBSS, which was used for an additional washing step (bound activity). The Quantification of the amount of free and bound radioactivity was performed in a γ-counter.
performed using LNCaP cells and ([125I]I-BA)KuE (0.2 nM) as radioligand (1 h, 4°C)

[7] = Metabolite analysis in mice, RP-HPLC of blood, urine and kidney extracts; conditions: 1 h p.i.
Experimental: as §14

SMILES | tumor accumulation [1] [% IA/g] | Human serum albumin binding (plasma protein binding) [2] | intact tracer in blood, urine and kidneys [3] [%] | uptake in bone and lymph node metastases, mean SUVmax [4] | uptake in bone and lymph node metastases, mean SUVmean [4] | uptake in the kidneys (SUVmean) [4] | uptake in the liver (SUVmean) [4] | uptake in the salivary glands (SUVmean) [4] | uptake in the spleen (SUVmean) [4] | Specific Internalization (1h; % of reference) [5] | fold higher internalization rate than the reference ligands [5] [fold] | IC50 [6] [nM] | more hydrophilic metabolite, share of total activity in the kidneys ([7]; kidneys) [%] | more hydrophilic metabolite, share of total activity in the urine ([7]; urine) [%] | enhanced internalization into LNCaP cells compared to EuE-k-18F-FBOA ([5]; versus EuE-k-18F-FBOA)
O=C(O)CCC(NC(=O)NC(CCC(=O)NC(CCCCNC(=O)CON=Cc1ccc([18F])cc1)C(=O)O)C(=O)O)C(=O)O (stereo not shown) [EuE-k-^18F-FBOA] | 12.7 ± 2.0 | 13.4% | 100 | 21.6 (range 15.4–28.2) | 14.7 (range 9.2–19) | 14.0 | 6.4 | 5.8 | 6.1 | 165 ± 4 % of reference | 1.4 | 4.2 ± 0.4 |  |  | 
O=C(O)CCC(NC(=O)NC(CCCCNC(=O)c1ccc([18F])nc1)C(=O)O)C(=O)O (stereo not shown) [^18F-DCFPyl, 2-(3-{1-Carboxy-5-[(6-[18F]fluoro-pyridine-3-carbonyl)-amino]-pentyl}-ureido)-pen tanedioic acid, reference compound] | 7.3 ± 1.0 | 14.3% |  |  |  |  |  |  |  | 118 ± 4 % of reference |  |  |  |  | 
O=C(O)CC[C@H](NC(=O)N[C@@H](CCCCNC(=O)[C@H](Cc1ccc2ccccc2c1)NC(=O)c1ccc(CNC(=O)[C@H](CCC(=O)O)NC(=O)[C@H](CCC(=O)O)NC(=O)c2ccc(F)nc2)cc1)C(=O)O)C(=O)O [^18F-PSMA-1007] |  |  |  |  |  |  |  |  |  |  |  | 4.2 ± 0.5 |  |  | 
O=C(O)CC[C@H](NC(=O)N[C@@H](CCCCNC(=O)[C@H](Cc1ccc2ccccc2c1)NC(=O)c1ccc(CNC(=O)[C@H](CCC(=O)O)NC(=O)[C@H](CCC(=O)O)NC(=O)c2ccc([18F])nc2)cc1)C(=O)O)C(=O)O [^18F-PSMA-1007] | 7.1 ± 1.5 | 98% and 97.8% |  |  |  |  |  |  |  | 118 ± 5 % of reference |  |  | 4 | 2 | 
O=C(O)CCC(NC(=O)NC(CCC(=O)NC(CCCCNC(=O)CCNC(=O)c1ccc([18F])nc1)C(=O)O)C(=O)O)C(=O)O (stereo not drawn) [EuE-k-β-a-^18F-FPyl] | 13.0 ± 1.0 | 12.0% | 100 |  |  |  |  |  |  | 323 ± 2 % of reference | 2.7 | 1.1 ± 0.2 |  |  | twofold
